According to the NIST ThermoML archive (doi:10.1016/j.jct.2007.11.013):

Experiment: xn = mol fraction of the nth substance listed
Conditions: Liquid, Bellows volumetry

CC(C)C [2-methylpropane] + CCCC
mass density [kg/m3]
Conditions	280 K	320 K	360 K	400 K	440 K
1000 kPa, x2 = 0.2656	580.73	530.15	–	–	–
1000 kPa, x2 = 0.4913	585.41	535.84	–	–	–
1000 kPa, x2 = 0.7508	589.56	541.44	–	–	–
2000 kPa, x2 = 0.2656	582.43	532.88	469.97	–	–
2000 kPa, x2 = 0.4913	586.92	538.41	478.17	–	–
2000 kPa, x2 = 0.7508	590.9	543.79	–	–	–
3000 kPa, x2 = 0.2656	583.92	535.39	475.52	–	–
3000 kPa, x2 = 0.4913	588.36	540.81	483.1	385.11	–
3000 kPa, x2 = 0.7508	592.32	546.12	490.53	402.2	–
5000 kPa, x2 = 0.2656	587.09	540.14	484.88	406.75	–
5000 kPa, x2 = 0.4913	591.12	545.4	491.8	417.26	–
5000 kPa, x2 = 0.7508	594.99	550.35	498.56	427.6	–
10000 kPa, x2 = 0.2656	593.89	550.53	502.82	446.63	376.07
10000 kPa, x2 = 0.4913	597.45	555.38	508.78	453.53	384.46
10000 kPa, x2 = 0.7508	601.36	559.85	514.37	460.33	393.12
20000 kPa, x2 = 0.2656	605.71	567.26	527.7	485.47	441.9
20000 kPa, x2 = 0.4913	608.98	571.45	532.51	490.78	447.31
20000 kPa, x2 = 0.7508	612.32	575.19	537.18	495.66	452.37
30000 kPa, x2 = 0.2656	615.41	580.65	545.48	509.52	474.54
30000 kPa, x2 = 0.4913	618.89	584.41	549.98	514.15	479.02
30000 kPa, x2 = 0.7508	621.81	587.77	554.09	518.42	483.18
40000 kPa, x2 = 0.2656	624.41	591.82	559.82	527.48	497.07
40000 kPa, x2 = 0.4913	627.45	595.5	563.9	531.91	501.25
40000 kPa, x2 = 0.7508	630.16	598.52	567.64	535.63	504.89
50000 kPa, x2 = 0.2656	632.48	601.55	571.85	542.19	514.8
50000 kPa, x2 = 0.4913	635.21	605.01	575.77	546.27	518.55
50000 kPa, x2 = 0.7508	637.79	607.82	579.14	549.67	521.88
60000 kPa, x2 = 0.2656	639.66	610.3	582.32	554.58	529.25
60000 kPa, x2 = 0.4913	642.4	613.74	586.24	558.4	532.82
60000 kPa, x2 = 0.7508	644.7	616.38	589.35	561.67	535.99
70000 kPa, x2 = 0.2656	646.31	618.47	591.65	565.35	541.79
70000 kPa, x2 = 0.4913	648.87	621.47	595.42	569.18	545.18
70000 kPa, x2 = 0.7508	650.96	623.97	598.27	572.18	548.23
80000 kPa, x2 = 0.2656	652.53	625.51	599.96	575	552.55
80000 kPa, x2 = 0.4913	654.98	628.69	603.53	578.67	556.07
80000 kPa, x2 = 0.7508	656.95	631.01	606.56	581.7	558.93
90000 kPa, x2 = 0.2656	658.15	632.18	607.66	583.7	562.49
90000 kPa, x2 = 0.4913	660.76	635.21	611.18	587.47	565.64
90000 kPa, x2 = 0.7508	662.63	637.49	613.96	590.11	568.41
100000 kPa, x2 = 0.2656	663.68	638.57	614.79	591.48	571.02
100000 kPa, x2 = 0.4913	666.14	641.34	618.14	595.11	574.54
100000 kPa, x2 = 0.7508	667.99	643.48	620.9	598.02	577.23
120000 kPa, x2 = 0.2656	673.84	649.73	627.56	605.85	586.73
120000 kPa, x2 = 0.4913	675.91	652.68	630.84	609.08	590.02
120000 kPa, x2 = 0.7508	677.69	654.79	633.4	611.77	592.51
140000 kPa, x2 = 0.2656	682.73	660.13	638.86	618.11	600.22
140000 kPa, x2 = 0.4913	685.03	662.76	642.02	621.57	603.26
140000 kPa, x2 = 0.7508	686.69	664.53	644.56	623.93	605.8
160000 kPa, x2 = 0.2656	691.28	669.26	649.01	628.97	612.2
160000 kPa, x2 = 0.4913	693.26	672	652.16	632.55	615.27
160000 kPa, x2 = 0.7508	694.86	673.62	654.38	634.89	617.59
180000 kPa, x2 = 0.2656	699.06	677.76	658.15	639.19	622.95
180000 kPa, x2 = 0.4913	700.72	680.38	661.25	642.45	625.93
180000 kPa, x2 = 0.7508	702.34	681.89	663.57	644.7	628.15
200000 kPa, x2 = 0.2656	706.05	685.47	666.71	648.34	632.67
200000 kPa, x2 = 0.4913	708	687.99	669.76	651.4	635.69
200000 kPa, x2 = 0.7508	709.43	689.51	672.02	653.9	637.8
